From the supplement of paper PMC10307832

Legend:
Assay in all cases: relative viability (nuclei count vs DMSO), 5 days (fraction); higher = more cells survive
BI-D1870 + Linsitinib = compound: CC(C)CCN1c2nc(Nc3cc(F)c(O)c(F)c3)ncc2N(C)C(=O)C1C [BI-D1870] + C[C@]1(O)C[C@@H](c2nc(-c3ccc4ccc(-c5ccccc5)nc4c3)c3c(N)nccn32)C1 [Linsitinib] (partner 1 µM)
Method in brief: (§1)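 Lung cancer cell lines in 1536-well plates were dosed by pin tool the day after seeding, either with one drug alone or with a fixed anchor-drug dose plus five library-drug doses (not always all listed) in √10 steps. After 5 days, cells were fixed and their nuclei stained in one step (final 0.05% Triton X-100, 1% formaldehyde, 1 ug/ml Hoechst), then counted on 4× images. Relative viability is the nuclei count in treated wells divided by that in vehicle wells. Values are medians of duplicate plates.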

BI-D1870 + Pemetrexed = compound: CC(C)CCN1c2nc(Nc3cc(F)c(O)c(F)c3)ncc2N(C)C(=O)C1C [BI-D1870] + Nc1nc2[nH]cc(CCc3ccc(C(=O)N[C@@H](CCC(=O)O)C(=O)O)cc3)c2c(=O)[nH]1 [Pemetrexed] (partner 0.2 µM)
Method in brief: as §1

BI-D1870 + Dasatinib = compound: CC(C)CCN1c2nc(Nc3cc(F)c(O)c(F)c3)ncc2N(C)C(=O)C1C [BI-D1870] + Cc1nc(Nc2ncc(C(=O)Nc3c(C)cccc3Cl)s2)cc(N2CCN(CCO)CC2)n1 [Dasatinib] (partner 0.075 µM)
Method in brief: as §1

Zebularine + Lapatinib = compound: O=c1ncccn1[C@@H]1O[C@H](CO)[C@@H](O)[C@H]1O [Zebularine] + CS(=O)(=O)CCNCc1ccc(-c2ccc3ncnc(Nc4ccc(OCc5cccc(F)c5)c(Cl)c4)c3c2)o1 [Lapatinib] (partner 2 µM)
Method in brief: as §1

| Cell Line | relative viability (BI-D1870 + Linsitinib; first compound 0.04 µM) | relative viability (BI-D1870 + Linsitinib; first compound 0.1265 µM) | relative viability (BI-D1870 + Linsitinib; first compound 0.4 µM) | relative viability (BI-D1870 + Linsitinib; first compound 1.265 µM) | relative viability (BI-D1870 + Linsitinib; first compound 4 µM) | relative viability (BI-D1870 + Pemetrexed; first compound 0.04 µM) | relative viability (BI-D1870 + Pemetrexed; first compound 0.1265 µM) | relative viability (BI-D1870 + Pemetrexed; first compound 0.4 µM) | relative viability (BI-D1870 + Pemetrexed; first compound 1.265 µM) | relative viability (BI-D1870 + Pemetrexed; first compound 4 µM) | relative viability (BI-D1870 + Dasatinib; first compound 0.04 µM) | relative viability (BI-D1870 + Dasatinib; first compound 0.1265 µM) | relative viability (BI-D1870 + Dasatinib; first compound 0.4 µM) | relative viability (BI-D1870 + Dasatinib; first compound 1.265 µM) | relative viability (BI-D1870 + Dasatinib; first compound 4 µM) | relative viability (Zebularine + Lapatinib; first compound 1 µM) | relative viability (Zebularine + Lapatinib; first compound 3.162 µM) | relative viability (Zebularine + Lapatinib; first compound 10 µM) | relative viability (Zebularine + Lapatinib; first compound 31.62 µM) | relative viability (Zebularine + Lapatinib; first compound 100 µM) |
| --- | --- | --- | --- | --- | --- | --- | --- | --- | --- | --- | --- | --- | --- | --- | --- | --- | --- | --- | --- | --- |
| LC-2-ad | 0.874 | 0.821 | 0.778 | 0.722 | 0.522 | 0.292 | 0.267 | 0.264 | 0.275 | 0.253 | 1.05 | 0.576 | 0.473 | 0.578 | 0.43 | 1.05 | 0.886 | 0.722 | 0.584 | 0.168 |
| COR-L 105 | 1.11 | 0.813 | 0.926 | 0.856 | 0.666 | 1.31 | 0.883 | 1.14 | 1.32 | 1.05 | 0.303 | 0.294 | 0.485 | 0.322 | 0.384 | 0.388 | 0.367 | 0.362 | 0.361 | 0.364 |
| NCI-H1355 | 0.842 | 0.81 | 0.788 | 0.788 | 0.75 | 1.04 | 0.998 | 1.03 | 1.15 | 0.963 | 0.886 | 0.726 | 0.767 | 0.838 | 0.674 | 1.31 | 0.851 | 0.854 | 0.681 | 0.357 |
| H3255 | 0.94 | 0.959 | 0.935 | 1.1 | 0.907 | 0.57 | 0.563 | 0.584 | 0.584 | 0.526 | 0.436 | 0.458 | 0.367 | 0.433 | 0.48 | 0.249 | 0.239 | 0.221 | 0.235 | 0.228 |
| NCI-H1993 | 0.812 | 0.739 | 0.726 | 0.703 | 0.797 | 0.646 | 0.605 | 0.582 | 0.594 | 0.475 | 0.663 | 0.48 | 0.697 | 0.868 | 0.467 | 0.848 | 0.691 | – | 0.718 | 0.735 |
| NCI-H1734 | 0.967 | 0.816 | 0.875 | 0.935 | 0.788 | 0.403 | 0.4 | 0.416 | 0.412 | 0.347 | 0.464 | 0.455 | 0.436 | 0.471 | 0.484 | 1.05 | 1.01 | 0.452 | 0.5 | 0.493 |
| HOP-62 | 1.25 | 0.997 | 1.13 | 1.04 | 0.91 | 0.331 | 0.333 | 0.379 | 0.409 | 0.365 | 0.707 | 0.675 | 0.603 | 0.66 | 0.524 | 1.07 | 0.783 | 0.467 | 0.368 | 0.144 |
| LOU-NH91 | 0.98 | 0.908 | 0.996 | 0.986 | 0.769 | 0.355 | 0.372 | 0.329 | 0.386 | 0.344 | 0.582 | 0.527 | 0.516 | 0.595 | 0.458 | 0.715 | 0.731 | 0.712 | 0.705 | 0.606 |
| NCI-H2228 | 0.78 | 0.568 | 0.953 | 0.529 | 0.388 | 0.33 | 0.345 | 0.349 | 0.353 | 0.195 | 0.543 | 0.403 | 0.553 | 0.544 | 0.337 | 1.19 | 1.04 | 0.66 | 0.638 | 0.281 |
| PC-14 | 1.04 | 0.919 | 0.908 | 0.91 | 0.633 | 0.124 | 0.129 | 0.141 | 0.133 | 0.124 | 0.27 | 0.241 | 0.272 | 0.239 | 0.259 | 0.448 | 0.296 | 0.201 | 0.163 | 0.126 |
| NCI-H1437 | 1.06 | 0.943 | 0.979 | 0.909 | 0.691 | 0.335 | 0.303 | 0.323 | 0.355 | 0.338 | 0.46 | 0.343 | 0.413 | 0.394 | 0.285 | 0.925 | 0.934 | – | 0.787 | 0.333 |
| NCI-H460 | 0.974 | 0.629 | 0.655 | 0.434 | 0.0477 | 0.0638 | 0.0586 | 0.0621 | 0.0582 | 0.0624 | 0.594 | 0.377 | 0.528 | 0.507 | 0.242 | 1.05 | 0.897 | 0.255 | 0.294 | 0.0468 |
| NCI-H1666 | 0.921 | 0.814 | 0.865 | 0.843 | 0.872 | 0.857 | 0.835 | 0.895 | 0.812 | 0.779 | 0.839 | 0.84 | 0.701 | 0.824 | 0.744 | 0.561 | 0.57 | 0.49 | 0.667 | 0.593 |
| NCI-H1651 | 1.09 | 0.907 | 0.962 | 0.922 | 0.752 | 0.566 | 0.561 | 0.547 | 0.629 | 0.54 | 0.405 | 0.293 | 0.345 | 0.297 | 0.237 | 0.917 | 1.07 | – | 0.94 | 0.515 |
| NCI-H1755 | 0.982 | 0.975 | 1.04 | 0.967 | 0.941 | 0.497 | 0.469 | 0.408 | 0.465 | 0.408 | 0.511 | 0.408 | 0.407 | 0.567 | 0.442 | 1.17 | 0.991 | 0.802 | 1.11 | 0.497 |
| NCI-H661 | 0.515 | 0.485 | 0.489 | 0.535 | 0.593 | 0.913 | 0.906 | 0.931 | 0.928 | 0.857 | 1.04 | 0.867 | 0.874 | 0.898 | 0.708 | 0.443 | 0.463 | 0.461 | 0.436 | 0.583 |
